# In patent US11957769B2, “Polyhydroxy fullerene sunscreen active agents and compositions” (THE CLEVELAND CLINIC FOUNDATION, priority 2016, dated 2024):
# Assays:
# [1] = UV-Visible absorbance spectra of PHF solution vs commercial SPF60 sunscreen; type: physicochemical; settings: PHF solution 0.5 mg/mL in 25% glycerol
# Method: The inventors discovered that PHF absorbs UV more effectively than commercial sunscreens. For initial comparisons (FIG. 2), the UV-Vis absorption of PHF solution at 0.5 mg/mL (prepared in 25% glycerol) was compared with Neutrogena SPF 60 (4.9% Titanium dioxide and 4.7% Zinc oxide) sunscreen at 5 mg/mL (in de-ionized water). The total concentration of AI in the commercial sunscreen suspension was equal to that of PHF (0.5 mg/mL) solution. PHF is a broad spectrum UV absorber, as its critical wavelength of 381 nm and UVA/UVB ratio of 1.6 exceeds the FDA limit of 370 nm and 0.91, respectively. The absorbance of PHF is 2.5-1.9 times higher in the UVB region (280-320 nm) and 1.9-1.5 times higher in the UVA region (320-400 nm) than SPF60 sunscreen. This high UV absorptive ability of PHF (for preventing direct damage from UVB and UVA) becomes even more important when combined with other potential advantages of PHF (preventing indirect free radical mediated damage) over current sunscreen AIs, as summarized in Table 1 and FIG. 3.
# skin sections = test: Blinded scoring of erythema and edema of UVB-exposed skin sections in a preclinical model; type: in vivo; settings: UVB 120 mJ/cm^2, 48 hours, blinded panel
# Method: PHF is a single, multifunctional active that replaces multiple actives of current sunscreen formulations. […] The concentration of PHF was optimized and the minimum concentration of PHF that prevents symptoms of sunburn (erythema and edema) was determined. In a preclinical model, different skin sections were applied with PHF formulation, SPF60 commercial sunscreen, vehicle (without PHF) samples and control (no application). All skin sections were exposed to UVB at 120 mJ/cm^2 dose. The skin sections were monitored for erythema (redness) and edema (swelling) at 24, 48 and 72 hours. Maximum erythema is usually observed at 48 hours. The photographs of skin sections at 48 hours were scored by a panel consisting of two dermatologists and two non-dermatologists. The panel was blinded to the identity of the samples. The result of blinded scoring study is plotted in FIG. 5. […] [table]
# [2] = cited from earlier work
# [3] = Photolability, comparison of sunscreen actives (Table 1); type: physicochemical; settings: Table 1 comparison of actives
# hairless SKH-1 mice = test: UV damage in skin of hairless SKH-1 mice after topical PHF
# Method: PHF (obtained from MER Corp.) was dissolved in water and applied on the right flank (2 cm×1 cm) of the dorsal region of hairless SKH-1 mice. The left flank (2 cm×1 cm) of the same mouse was used as a control with topical application of deionized water. The topical applications were allowed to dry for 15 minutes followed by UV exposure (80 mJ/cm^2; 90% UVB and 10% UVA). […] Mice were euthanized 48 hours post-UV exposure, and the skin was harvested for histological analysis or immunofluorescent staining.
# Nrf2 pathway = settings: Ye et al. 2014; cited from earlier work
# [4] = cited from earlier work; remark: listed apart in the source
# [5] = 48 hours post-UV exposure, vs water control flank
substance,measurement,setting,value
polyhydroxy fullerene [PHF],UVA/UVB ratio,[1]; FDA limit 0.91,1.6
same,critical wavelength,[1]; FDA limit 370 nm,381 nm
same,erythema and edema score vs commercial SPF60 sunscreen,skin sections,on par with commercial SPF60 sunscreen
same,erythema and edema score vs control and vehicle only,skin sections; α=0.01,reduced erythema and edema significantly
same,free radical generation on UV absorption,[2]; Krishna et al. 2008,without generating free radicals
same,Potential ROS generation,[2]; Table 1 comparison of actives,None
same,Photolabile,[3],No
same,erythema (sunburn),"hairless SKH-1 mice; 24 hours after UV exposure (80 mJ/cm^2; 90% UVB and 10% UVA), topical PHF in water vs water control flank",did not show any signs of erythema
same,"DNA photoproducts (cyclopyrimidine dimers, CPD)",hairless SKH-1 mice; [5],fewer DNA photoproducts
same,"epidermal cell death (dyskeratotic sunburn cells), histology",hairless SKH-1 mice; [5],marked reduction in epidermal cell death
same,recovery of proliferation (Ki-67),hairless SKH-1 mice; [5],faster recovery of proliferation
same,Nrf2 pathway activation,Nrf2 pathway,activates the Nrf2 pathway
same,ROS susceptibility,[4]; Table 1 comparison of actives,Catalytically
same,neutralization of free radicals,"[4]; superoxide, nitric oxide, etc., Yin et al. 2009",can catalytically neutralize different types of free radicals
